The values that follow come from US12018021B2 (UCB Biopharma SRL, priority 2018, dated 2024).

Chain of IgE-Tb / sFcεRIα-Y131A-AF488 (P01854 whole entry N146Q/N252Q): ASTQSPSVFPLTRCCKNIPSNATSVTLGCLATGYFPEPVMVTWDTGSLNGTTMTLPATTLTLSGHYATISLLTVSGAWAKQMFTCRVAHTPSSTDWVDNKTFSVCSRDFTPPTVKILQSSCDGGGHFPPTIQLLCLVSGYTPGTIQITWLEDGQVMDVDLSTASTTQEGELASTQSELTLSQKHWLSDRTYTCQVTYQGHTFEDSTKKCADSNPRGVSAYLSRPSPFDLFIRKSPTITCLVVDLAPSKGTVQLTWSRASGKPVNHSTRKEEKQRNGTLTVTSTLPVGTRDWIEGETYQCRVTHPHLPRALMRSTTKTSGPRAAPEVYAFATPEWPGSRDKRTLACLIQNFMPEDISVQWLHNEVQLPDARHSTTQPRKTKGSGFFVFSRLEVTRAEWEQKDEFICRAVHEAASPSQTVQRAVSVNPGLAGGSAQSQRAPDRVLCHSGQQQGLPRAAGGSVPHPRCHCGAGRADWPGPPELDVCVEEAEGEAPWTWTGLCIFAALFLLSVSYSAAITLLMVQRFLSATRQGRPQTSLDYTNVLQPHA

The experiment addresses IgE-Tb / sFcεRIα-Y131A-AF488 (Homo sapiens, UniProt P01854, N146Q/N252Q). In words: IgE-Tb / sFcεRIα-Y131A-AF488 FRET assay (protocol for examples 234 to 501). In kind it is binding. The following applies: examples 234 to 501: compound with IgE-Tb 30 minutes before sFcεRIα-Y131A-AF488, incubated 18 hours at room temperature; read-out: Y131A FRET IC50 range. The method, boiled down: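 Compounds (10-point 3-fold series, top usually 10 μM, 2% DMSO) preincubated 30 min with 5 nM IgE-Tb, then 25 nM sFcεRIα-Y131A-AF488 added; 18 h at room temperature in the dark. TR-FRET ratio 520/490 nm after 337 nm excitation, background-subtracted; IC50 by four-parameter logistic fit.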
`Cn1nc(OC(F)F)cc1Nc1nncn1[C@H]1CCc2sc(NC(=O)C3CC3)c(C(=O)N[C@H]3C[C@H](F)C3)c2C1` [Example 449, (5S)-2-(cyclopropanecarbonylamino)-5-[3-[[5-(difluoromethoxy)-2-methylpyrazol-3-yl]amino]-1,2,4-triazol-4-yl]-N-(trans-3-fluorocyclobutyl)-4,5,6,7-tetrahydro-1-benzothiophene-3-carboxamide]: the IC50 is under 1000 nM. Turning to `Cn1nc(OC(F)F)cc1Nc1nncn1[C@H]1CCc2sc(NC(=O)C3CC3)c(C(=O)NC3CC(F)(F)C3)c2C1` [Example 450, (5S)-2-(cyclopropanecarbonylamino)-N-(3,3-difluorocyclobutyl)-5-[3-[[5-(difluoromethoxy)-2-methylpyrazol-3-yl]amino]-1,2,4-triazol-4-yl]-4,5,6,7-tetrahydro-1-benzothiophene-3-carboxamide], the IC50 is under 1000 nM.

For the compound `Cn1nc(OC(F)F)cc1Nc1nncn1[C@H]1CCc2sc(NC(=O)C3CC3)c(C(=O)NCC3CCC3(F)F)c2C1` (stereo partly drawn) [Example 451, (5S)-2-(cyclopropanecarbonylamino)-N-[(2,2-difluorocyclobutyl)methyl]-5-[3-[[5-(difluoromethoxy)-2-methylpyrazol-3-yl]amino]-1,2,4-triazol-4-yl]-4,5,6,7-tetrahydro-1-benzothiophene-3-carboxamide], the IC50 is under 1000 nM. The figure for `CC1CC1CNC(=O)c1c(NC(=O)C2CC2)sc2c1C[C@@H](n1cnnc1Nc1cc(OC(F)F)nn1C)CC2` (stereo partly drawn) [Example 453, (5S)-2-(cyclopropanecarbonylamino)-5-[3-[[5-(difluoromethoxy)-2-methylpyrazol-3-yl]amino]-1,2,4-triazol-4-yl]-N-[(2-methylcyclopropyl)methyl]-4,5,6,7-tetrahydro-1-benzothiophene-3-carboxamide] is under 1000 nM; for `Cn1nc(OC(F)F)cc1Nc1nncn1[C@H]1CCc2sc(NC(=O)C3CC3)c(C(=O)NC[C@H]3C[C@H](F)C3)c2C1` [Example 456, (5S)-2-(cyclopropanecarbonylamino)-5-[3-[[5-(difluoromethoxy)-2-methylpyrazol-3-yl]amino]-1,2,4-triazol-4-yl]-N-[trans-(3-fluorocyclobutyl)methyl]-4,5,6,7-tetrahydro-1-benzothiophene-3-carboxamide] it is under 1000 nM.

As to `Cn1nc(OC(F)F)cc1Nc1nncn1[C@H]1CCc2sc(NC(=O)C3CC3)c(C(=O)NCC3CCC3F)c2C1` (stereo partly drawn) [Example 457, (5S)-2-(cyclopropanecarbonylamino)-5-[3-[[5-(difluoromethoxy)-2-methylpyrazol-3-yl]amino]-1,2,4-triazol-4-yl]-N-[(2-fluorocyclobutyl)methyl]-4,5,6,7-tetrahydro-1-benzothiophene-3-carboxamide], the IC50 was under 1000 nM. Regarding `Cn1nc(OC(F)F)cc1Nc1nncn1[C@H]1CCc2sc(NC(=O)C3CC3)c(C(=O)NC[C@H]3C[C@H]3F)c2C1` [Example 461, (5S)-2-(cyclopropanecarbonylamino)-5-[3-[[5-(difluoromethoxy)-2-methylpyrazol-3-yl]amino]-1,2,4-triazol-4-yl]-N-[[(1R,2R)-2-fluorocyclopropyl]methyl]-4,5,6,7-tetrahydro-1-benzothiophene-3-carboxamide], the IC50 was under 1000 nM.

Consider `Cn1nc(OC(F)F)cc1Nc1nncn1[C@H]1CCc2sc(NC(=O)C3CC3)c(C(=O)NC[C@H]3C[C@@H]3F)c2C1` [Example 462, (5S)-2-(cyclopropanecarbonylamino)-5-[3-[[5-(difluoromethoxy)-2-methylpyrazol-3-yl]amino]-1,2,4-triazol-4-yl]-N-[[(1R,2S)-2-fluorocyclopropyl]methyl]-4,5,6,7-tetrahydro-1-benzothiophene-3-carboxamide], for which the IC50 was under 1000 nM. `COc1cc(Nc2nncn2[C@H]2CCc3sc(NC(=O)[C@H]4C[C@@H]4C)c(C(=O)NC[C@H]4C[C@@H]4F)c3C2)n(C)n1` [Example 466, (5S)—N-[[(1R,2S)-2-fluorocyclopropyl]methyl]-5-[3-[(5-methoxy-2-methylpyrazol-3-yl)amino]-1,2,4-triazol-4-yl]-2-[[(1S,2S)-2-methylcyclopropanecarbonyl]amino]-4,5,6,7-tetrahydro-1-benzothiophene-3-carboxamide]: the IC50 is under 1000 nM. For the compound `COc1cc(Nc2nncn2[C@H]2CCc3sc(NC(=O)[C@H]4C[C@@H]4C)c(C(=O)NC[C@H]4C[C@H](F)C4)c3C2)n(C)n1` [Example 467, (5S)—N-[trans-(3-fluorocyclobutyl)methyl]-5-[3-[(5-methoxy-2-methylpyrazol-3-yl)amino]-1,2,4-triazol-4-yl]-2-[[(1S,2S)-2-methylcyclopropanecarbonyl]amino]-4,5,6,7-tetrahydro-1-benzothiophene-3-carboxamide], the IC50 was under 1000 nM.

On to `COc1cc(Nc2nncn2[C@H]2CCc3sc(NC(=O)[C@H]4C[C@@H]4C)c(C(=O)NCC4CC4)c3C2)n(C)n1` [Example 468, (5S)—N-(cyclopropylmethyl)-5-[3-[(5-methoxy-2-methylpyrazol-3-yl)amino]-1,2,4-triazol-4-yl]-2-[[(1S,2S)-2-methylcyclopropanecarbonyl]amino]-4,5,6,7-tetrahydro-1-benzothiophene-3-carboxamide], for which the IC50 was under 1000 nM. Consider `Cn1nc(C(F)F)cc1Nc1nncn1[C@H]1CCc2sc(NC(=O)[C@H]3C[C@H](F)C3)c(C(=O)NC[C@H]3C[C@@H]3F)c2C1` [Example 471, (5S)-5-[3-[[5-(difluoromethyl)-2-methylpyrazol-3-yl]amino]-1,2,4-triazol-4-yl]-2-[trans-(3-fluorocyclobutanecarbonyl)amino]-N-[[(1R,2S)-2-fluorocyclopropyl]methyl]-4,5,6,7-tetrahydro-1-benzothiophene-3-carboxamide], for which the IC50 was under 1000 nM.

As for `Cn1nc(C(F)F)cc1Nc1nncn1[C@H]1CCc2sc(NC(=O)[C@H]3C[C@H](F)C3)c(C(=O)NCC3CCC3)c2C1` [Example 473, (5S)—N-(cyclobutylmethyl)-5-[3-[[5-(difluoromethyl)-2-methylpyrazol-3-yl]amino]-1,2,4-triazol-4-yl]-2-[trans-(3-fluorocyclobutanecarbonyl)amino]-4,5,6,7-tetrahydro-1-benzothiophene-3-carboxamide], the IC50 is under 1000 nM. For `Cn1nc(C(F)F)cc1Nc1nncn1[C@H]1CCc2sc(NC(=O)C3CC(F)(F)C3)c(C(=O)NC[C@H]3C[C@H]3F)c2C1` [Example 479, (5S)-2-[(3,3-difluorocyclobutanecarbonyl)amino]-5-[3-[[5-(difluoromethyl)-2-methylpyrazol-3-yl]amino]-1,2,4-triazol-4-yl]-N-[[(1R,2R)-2-fluorocyclopropyl]methyl]-4,5,6,7-tetrahydro-1-benzothiophene-3-carboxamide], the IC50 is under 1000 nM. The figure for `Cn1nc(C(F)F)cc1Nc1nncn1[C@H]1CCc2sc(NC(=O)C3CC(F)(F)C3)c(C(=O)N[C@H]3C[C@H](F)C3)c2C1` [Example 480, (5S)-2-[(3,3-difluorocyclobutanecarbonyl)amino]-5-[3-[[5-(difluoromethyl)-2-methylpyrazol-3-yl]amino]-1,2,4-triazol-4-yl]-N-(trans-3-fluorocyclobutyl)-4,5,6,7-tetrahydro-1-benzothiophene-3-carboxamide] is under 1000 nM. The figure for `Cn1nc(OC(F)F)cc1Nc1nncn1[C@H]1CCc2sc(NC(=O)[C@H]3C[C@H](F)C3)c(C(=O)NC[C@@H]3C[C@@H]3F)c2C1` [Example 481, (5S)-5-[3-[[5-(difluoromethoxy)-2-methylpyrazol-3-yl]amino]-1,2,4-triazol-4-yl]-2-[trans-(3-fluorocyclobutanecarbonyl)amino]-N-[[(1S,2S)-2-fluorocyclopropyl]methyl]-4,5,6,7-tetrahydro-1-benzothiophene-3-carboxamide] is under 1000 nM; for `Cn1nc(OC(F)F)cc1Nc1nncn1[C@H]1CCc2sc(NC(=O)[C@H]3C[C@H](F)C3)c(C(=O)NC[C@H]3C[C@H]3F)c2C1` [Example 482, (5S)-5-[3-[[5-(difluoromethoxy)-2-methylpyrazol-3-yl]amino]-1,2,4-triazol-4-yl]-2-[trans-(3-fluorocyclobutanecarbonyl)amino]-N-[[(1R,2R)-2-fluorocyclopropyl]methyl]-4,5,6,7-tetrahydro-1-benzothiophene-3-carboxamide] it is under 1000 nM.

For the compound `Cn1nc(OC(F)F)cc1Nc1nncn1[C@H]1CCc2sc(NC(=O)[C@H]3C[C@H](F)C3)c(C(=O)NC[C@H]3C[C@@H]3F)c2C1` [Example 483, (5S)-5-[3-[[5-(difluoromethoxy)-2-methylpyrazol-3-yl]amino]-1,2,4-triazol-4-yl]-2-[trans-(3-fluorocyclobutanecarbonyl)amino]-N-[[(1R,2S)-2-fluorocyclopropyl]methyl]-4,5,6,7-tetrahydro-1-benzothiophene-3-carboxamide], the IC50 was under 1000 nM. On to `Cn1nc(OC(F)F)cc1Nc1nncn1[C@H]1CCc2sc(NC(=O)[C@H]3C[C@H](F)C3)c(C(=O)NC[C@H]3C[C@H](F)C3)c2C1` [Example 486, (5S)-5-[3-[[5-(difluoromethoxy)-2-methylpyrazol-3-yl]amino]-1,2,4-triazol-4-yl]-2-[trans-(3-fluorocyclobutanecarbonyl)amino]-N-[trans-(3-fluorocyclobutyl)methyl]-4,5,6,7-tetrahydro-1-benzothiophene-3-carboxamide], for which the IC50 was under 1000 nM. The same measure for `Cn1nc(OC(F)F)cc1Nc1nncn1[C@H]1CCc2sc(NC(=O)[C@H]3C[C@H](F)C3)c(C(=O)N[C@H]3C[C@H](F)C3)c2C1` [Example 487, (5S)-5-[3-[[5-(difluoromethoxy)-2-methylpyrazol-3-yl]amino]-1,2,4-triazol-4-yl]-2-[trans-(3-fluorocyclobutanecarbonyl)amino]-N-(trans-3-fluorocyclobutyl)-4,5,6,7-tetrahydro-1-benzothiophene-3-carboxamide]: under 1000 nM.

For orientation: IC50 means the concentration that gives 50% inhibition.
